# Tested on: subjects with subjective tinnitus of at least moderate severity
# Assay: Double blind placebo controlled pilot trial of neramexane for treatment of tinnitus (TBF-12 score)
# Assay type: in vivo, human
# Conditions: for Change in the TBF-12 total score from baseline, Change LSMean: ANCOVA
# Protocol: Visit 1 (screening): After signing the consent form, the subject underwent a physical examination and clinical laboratory testing. Patient eligibility for the study was evaluated via a check of inclusion/exclusion criteria. An initial Tinnitus Interview was conducted. The subject also completed a Tinnitus-Beeinträchtigungs-Fragebogen (TBF-12) (i.e., a 12-item German modified and validated version (Greimel K V et al., Tinnitus-Beeinträchtigungs-Fragebogen (TBF-12). Manual. Frankfurt am Main: Swets & Zeitlinger B.V.; 2000) of the 25-item Tinnitus Handicap Inventory or THI (Newman C W, et al. Development of the Tinnitus Handicap Inventory. Arch Otolaryngol Head Neck Surg 1996; 122(2): 143-148; Newman C W, et al. Psychometric adequacy of the Tinnitus Handicap Inventory (THI) for evaluating treatment outcome. J Am Acad Audiol 1998; 9(2): 153-160.)), a Hospital Anxiety and Depression Scale—Depression Subscale (HADS-D) Questionnaire and a Hyperacusis (Geräuschüberempfindlichkeit-Fragenbogen (GÜF)) Questionnaire (if applicable).
# Visit 2 (baseline): The subject was asked about adverse events and changes in concomitant medication/disease, which events/changes were documented. The subject was evaluated for study eligibility based on a review of the inclusion/exclusion criteria. Trial procedures as well as allowed and forbidden concomitant medications were reviewed with the subject. An initial Tinnitus Interview was conducted. The subject also completed a TBF-12, HADS-D Questionnaire and GÜF Questionnaire (if applicable). The subject was enrolled in the study and study medication (placebo or neramexane) was dispensed as described below.
# Visit 3 (Week 4): This visit occurred at the end of the 4-week up-titration sequence. The subject was asked about adverse events and changes in concomitant medication/disease, which events/changes were documented. A follow-up Tinnitus Interview was conducted. The subject also completed a TBF-12, HADS-D Questionnaire and GÜF Questionnaire (if applicable). Medication compliance was assessed, and medication for the next 4 weeks was dispensed as described below.
# Visit 4 (Week 8): This visit occurred at the end of the first 4-week fixed-dose double-blind treatment period. The subject was asked about adverse events and changes in concomitant medication/disease, which changes are documented. Blood samples were collected in order to determine neramexane pre-dose concentration. A follow-up Tinnitus Interview was conducted. The subject also completed a TBF-12, HADS-D Questionnaire and GÜF Questionnaire (if applicable). Medication compliance was assessed and, medication for the next 4 weeks was dispensed as described below.
# Visit 5 (Week 12): This visit occurred at the end of the second 4-week fixed-dose double-blind treatment period. The subject was asked about adverse events and changes in concomitant medication/disease, which changes are documented. A follow-up Tinnitus Interview was conducted. The subject also completed a TBF-12, HADS-D Questionnaire and GÜF Questionnaire (if applicable). Medication compliance was assessed and, medication for the next 4 weeks was dispensed as described below.
# Visit 6 (Week 16, end of treatment): This visit occurred at the end of the 12-week fixed-dose double-blind treatment period. The subject was asked about adverse events and changes in concomitant medication/disease, which changes are documented. A clinical laboratory evaluation was performed. A follow-up Tinnitus Interview was conducted, and the subject completed a TBF-12, HADS-D Questionnaire and GÜF Questionnaire (if applicable). Pure-tone audiometry (air conduction) was also conducted.
# Visit 7 (Week 20): This visit occurred at the end of the 4-week follow-up period after the last study medication dose. Review of concomitant medications as well as the occurrence of adverse events since the last visit is conducted with subject. […]
# [1] = 25 mg/d, Week 4, ITT-LOCF, n=106
# [2] = 25 mg/d, Week 8, ITT-LOCF, n=106
# [3] = 25 mg/d, Week 12, ITT-LOCF, n=106
# [4] = 25 mg/d, Week 16 (end of treatment), ITT-LOCF, n=106
# [5] = 25 mg/d, Week 20 (Follow-up, 4 weeks without treatment), ITT-LOCF, n=100
# [6] = 50 mg/d, Week 4, ITT-LOCF, n=106
# [7] = 50 mg/d, Week 8, ITT-LOCF, n=106
# [8] = 50 mg/d, Week 12, ITT-LOCF, n=106
# [9] = 50 mg/d, Week 16 (end of treatment), ITT-LOCF, n=106
# [10] = 50 mg/d, Week 20 (Follow-up, 4 weeks without treatment), ITT-LOCF, n=95
# [11] = 75 mg/d, Week 4, ITT-LOCF, n=99
# [12] = 75 mg/d, Week 8, ITT-LOCF, n=99
# [13] = 75 mg/d, Week 12, ITT-LOCF, n=99
# [14] = 75 mg/d, Week 16 (end of treatment), ITT-LOCF, n=99
# [15] = 75 mg/d, Week 20 (Follow-up, 4 weeks without treatment), ITT-LOCF, n=89
smiles,measurement,setting,value
"CC1(C)CC(C)(C)CC(C)(N)C1 [Neramexane, 1-amino-1,3,3,5,5-pentamethylcyclohexane]","Change in the TBF-12 total score from baseline, Change LSMean","25 mg/d, Week 4, ITT-LOCF",−0.8
same,"Change in the TBF-12 total score from baseline, Change Mean ± SD",[1],−1.0 ± 2.6
same,"TBF-12 total score, Actual Mean ± SD",[1],13.4 ± 4.5
same,"Change in TBF-12 total score, Neramexane - Placebo LSMean Diff. ± SE","25 mg/d, Week 4, ITT-LOCF, 95% CI [−0.8, 0.7], p-value 0.875",−0.1 ± 0.4
same,"Change in the TBF-12 total score from baseline, Change LSMean","25 mg/d, Week 8, ITT-LOCF",−1.5
same,"Change in the TBF-12 total score from baseline, Change Mean ± SD",[2],−1.7 ± 2.9
same,"TBF-12 total score, Actual Mean ± SD",[2],12.7 ± 4.9
same,"Change in TBF-12 total score, Neramexane - Placebo LSMean Diff. ± SE","25 mg/d, Week 8, ITT-LOCF, 95% CI [−0.5, 1.2], p-value 0.429",0.3 ± 0.4
same,"Change in the TBF-12 total score from baseline, Change LSMean","25 mg/d, Week 12, ITT-LOCF",−1.4
same,"Change in the TBF-12 total score from baseline, Change Mean ± SD",[3],−1.6 ± 3.4
same,"TBF-12 total score, Actual Mean ± SD",[3],12.8 ± 5.0
same,"Change in TBF-12 total score, Neramexane - Placebo LSMean Diff. ± SE","25 mg/d, Week 12, ITT-LOCF, 95% CI [−0.3, 1.6], p-value 0.182",0.6 ± 0.5
same,"Change in the TBF-12 total score from baseline, Change LSMean","25 mg/d, Week 16 (end of treatment), ITT-LOCF",−1.8
same,"Change in the TBF-12 total score from baseline, Change Mean ± SD",[4],−2.0 ± 3.4
same,"TBF-12 total score, Actual Mean ± SD",[4],12.4 ± 5.3
same,"Change in TBF-12 total score, Neramexane - Placebo LSMean Diff. ± SE","25 mg/d, Week 16 (end of treatment), ITT-LOCF, 95% CI [−0.5, 1.5], p-value 0.359",0.5 ± 0.5
same,"Change in TBF-12 total score, Neramexane - Placebo LSMean Diff. ± SE","25 mg/d, Week 20 (Follow-up), ITT-LOCF, 95% CI [−0.6, 1.6], p-value 0.336",0.5 ± 0.6
same,"Change in the TBF-12 total score from baseline, Change LSMean","25 mg/d, Week 20 (Follow-up, 4 weeks without treatment), ITT-LOCF",−2.0
same,"Change in the TBF-12 total score from baseline, Change Mean ± SD",[5],−2.1 ± 3.4
same,"TBF-12 total score, Actual Mean ± SD",[5],12.3 ± 5.5
same,"Change in the TBF-12 total score from baseline, Change LSMean","50 mg/d, Week 4, ITT-LOCF",−1.4
same,"Change in the TBF-12 total score from baseline, Change Mean ± SD",[6],−1.4 ± 3.2
same,"TBF-12 total score, Actual Mean ± SD",[6],13.0 ± 4.7
same,"Change in TBF-12 total score, Neramexane - Placebo LSMean Diff. ± SE","50 mg/d, Week 4, ITT-LOCF, 95% CI [−1.3, 0.1], p-value 0.110",−0.6 ± 0.4
same,"Change in the TBF-12 total score from baseline, Change LSMean","50 mg/d, Week 8, ITT-LOCF",−2.1
same,"Change in the TBF-12 total score from baseline, Change Mean ± SD",[7],−2.2 ± 3.3
same,"TBF-12 total score, Actual Mean ± SD",[7],12.3 ± 4.8
same,"Change in TBF-12 total score, Neramexane - Placebo LSMean Diff. ± SE","50 mg/d, Week 8, ITT-LOCF, 95% CI [−1.1, 0.5], p-value 0.488",−0.3 ± 0.4
same,"Change in the TBF-12 total score from baseline, Change LSMean","50 mg/d, Week 12, ITT-LOCF",−2.5
same,"Change in the TBF-12 total score from baseline, Change Mean ± SD",[8],−2.6 ± 3.8
same,"TBF-12 total score, Actual Mean ± SD",[8],11.8 ± 4.9
same,"Change in TBF-12 total score, Neramexane - Placebo LSMean Diff. ± SE","50 mg/d, Week 12, ITT-LOCF, 95% CI [−1.4, 0.5], p-value 0.357",−0.4 ± 0.5
same,"Change in the TBF-12 total score from baseline, Change LSMean","50 mg/d, Week 16 (end of treatment), ITT-LOCF",−3.1
same,"Change in the TBF-12 total score from baseline, Change Mean ± SD",[9],−3.2 ± 4.1
same,"TBF-12 total score, Actual Mean ± SD",[9],11.2 ± 5.1
same,"Change in TBF-12 total score, Neramexane - Placebo LSMean Diff. ± SE","50 mg/d, Week 16 (end of treatment), ITT-LOCF, 95% CI [−1.8, 0.2], p-value 0.098",−0.8 ± 0.5
same,"Change in TBF-12 total score, Neramexane - Placebo LSMean Diff. ± SE","50 mg/d, Week 20 (Follow-up), ITT-LOCF, 95% CI [−2.4, −0.2], p-value 0.021",−1.3 ± 0.6
same,"Change in the TBF-12 total score from baseline, Change LSMean","50 mg/d, Week 20 (Follow-up, 4 weeks without treatment), ITT-LOCF",−3.8
same,"Change in the TBF-12 total score from baseline, Change Mean ± SD",[10],−3.9 ± 4.4
same,"TBF-12 total score, Actual Mean ± SD",[10],10.4 ± 5.3
same,"Change in the TBF-12 total score from baseline, Change LSMean","75 mg/d, Week 4, ITT-LOCF",−1.6
same,"Change in the TBF-12 total score from baseline, Change Mean ± SD",[11],−1.7 ± 2.7
same,"TBF-12 total score, Actual Mean ± SD",[11],12.2 ± 4.3
same,"Change in TBF-12 total score, Neramexane - Placebo LSMean Diff. ± SE","75 mg/d, Week 4, ITT-LOCF, 95% CI [−1.6, −0.1], p-value 0.026",−0.9 ± 0.4
same,"Change in the TBF-12 total score from baseline, Change LSMean","75 mg/d, Week 8, ITT-LOCF",−1.9
same,"Change in the TBF-12 total score from baseline, Change Mean ± SD",[12],−2.0 ± 3.3
same,"TBF-12 total score, Actual Mean ± SD",[12],11.9 ± 4.5
same,"Change in TBF-12 total score, Neramexane - Placebo LSMean Diff. ± SE","75 mg/d, Week 8, ITT-LOCF, 95% CI [−1.0, 0.7], p-value 0.813",−0.1 ± 0.4
same,"Change in the TBF-12 total score from baseline, Change LSMean","75 mg/d, Week 12, ITT-LOCF",−2.4
same,"Change in the TBF-12 total score from baseline, Change Mean ± SD",[13],−2.5 ± 3.5
same,"TBF-12 total score, Actual Mean ± SD",[13],11.4 ± 4.9
same,"Change in TBF-12 total score, Neramexane - Placebo LSMean Diff. ± SE","75 mg/d, Week 12, ITT-LOCF, 95% CI [−1.3, 0.6], p-value 0.457",−0.4 ± 0.5
same,"Change in the TBF-12 total score from baseline, Change LSMean","75 mg/d, Week 16 (end of treatment), ITT-LOCF",−2.8
same,"Change in the TBF-12 total score from baseline, Change Mean ± SD",[14],−2.9 ± 3.9
same,"TBF-12 total score, Actual Mean ± SD",[14],11.0 ± 5.1
same,"Change in TBF-12 total score, Neramexane - Placebo LSMean Diff. ± SE","75 mg/d, Week 16 (end of treatment), ITT-LOCF, 95% CI [−1.6, 0.5], p-value 0.289",−0.5 ± 0.5
same,"Change in TBF-12 total score, Neramexane - Placebo LSMean Diff. ± SE","75 mg/d, Week 20 (Follow-up), ITT-LOCF, 95% CI [−1.8, 0.5], p-value 0.244",−0.7 ± 0.6
same,"Change in the TBF-12 total score from baseline, Change LSMean","75 mg/d, Week 20 (Follow-up, 4 weeks without treatment), ITT-LOCF",−3.2
same,"Change in the TBF-12 total score from baseline, Change Mean ± SD",[15],−3.3 ± 3.6
same,"TBF-12 total score, Actual Mean ± SD",[15],10.5 ± 4.9
same,Capability for improvement of tinnitus after withdrawal (conclusion of pilot trial),after drug withdrawal,sustained improvement of tinnitus even after the drug is withdrawn
same,Further improvement of tinnitus during 4-week wash-out period without any medication,subjects who had received low-dose (25 mg),not reported
CC1(C)CC(C)(C)CC(C)(N)C1.CS(=O)(=O)O [neramexane mesylate],Improvement of tinnitus as measured by the TBF-12,"after 16-week double-blind treatment (Visit 6), final daily doses of 50 or 75 mg, distinct from placebo or low-dose (25 mg) groups",clear improvement of their tinnitus
same,Differences in TBF-12 improvement between the 50 mg and the placebo group,"end of the 4-week wash-out (Week 20, Visit 7), 50 mg",reached statistical significance
same,Improvement of tinnitus during 4-week wash-out period without any medication,subjects previously treated with either 50 or 75 mg,further relevant improvement of their tinnitus
